Source: PubChem BioAssay AID328 (DTP/NCI, 2004)
Several values for one entry are separate records, joined by “and”; a condition that tells them apart may be missing. Equal entries are not always repeated. Inconclusive results and toxic doses are left out.

Test system: BDF1 mice, P388 leukemia ip, median survival T/C
Assay: NCI In Vivo Anticancer Drug Screen. Data for tumor model P388 Leukemia (intraperitoneal) in B6D2F1 (BDF1) mice
Settings: endpoint: median survival time, higher = longer survival
In short: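 Vehicle-dosed animals serve as the reference; survival of compound-dosed, tumour-implanted mice is divided by it.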

**Q.** Which results are given for `COC(=O)C[C@](O)(CCCC(C)(C)O)C(=O)O[C@@H]1C(OC)=C[C@]23CCCN2CCc2cc4c(cc2[C@H]13)OCO4`?
**A.** T/C (dose: 0.06 mg/kg/injection, schedule: Q01DX010 (ip), vehicle: saline): 154 % of control; T/C (dose: 0.13 mg/kg/injection, schedule: Q01DX010 (ip), vehicle: saline): 172 % of control; T/C (dose: 0.25 mg/kg/injection, schedule: Q01DX009 (ip), vehicle: acid diluted with saline): 180 % of control; T/C (dose: 0.25 mg/kg/injection, schedule: Q01DX009 (ip), vehicle: water): 233 % of control and 244 % of control; T/C (dose: 0.25 mg/kg/injection, schedule: Q01DX010 (ip), vehicle: saline): 181 % of control; T/C (dose: 0.25 mg/kg/injection, schedule: Q03HX016 (ip), vehicle: acid diluted with saline): 160 % of control; T/C (dose: 0.5 mg/kg/injection, schedule: Q01DX006 (iv), vehicle: acid diluted with saline): 115 % of control; T/C (dose: 0.5 mg/kg/injection, schedule: Q01DX009 (ip), vehicle: acid diluted with saline): 190 % of control; T/C (dose: 0.5 mg/kg/injection, schedule: Q01DX009 (ip), vehicle: saline): 240 % of control and 100 % of control; T/C (dose: 0.5 mg/kg/injection, schedule: Q01DX009 (ip), vehicle: water): 272 % of control and 300 % of control; T/C (dose: 0.5 mg/kg/injection, schedule: Q01DX009 (oral), vehicle: acid diluted with saline): 115 % of control; T/C (dose: 0.5 mg/kg/injection, schedule: Q01DX009 (oral), vehicle: saline): 155 % of control; T/C (dose: 0.5 mg/kg/injection, schedule: Q01DX009 (sc), vehicle: saline): 105 % of control; T/C (dose: 0.5 mg/kg/injection, schedule: Q01DX010 (ip), vehicle: saline): 245 % of control and 215 % of control; T/C (dose: 0.5 mg/kg/injection, schedule: Q03HX016 (ip), vehicle: acid diluted with saline): 180 % of control; T/C (dose: 1.0 mg/kg/injection, schedule: Q01DX006 (iv), vehicle: acid diluted with saline): 160 % of control; T/C (dose: 1.0 mg/kg/injection, schedule: Q01DX009 (ip), vehicle: acid diluted with saline): 225 % of control and 218 % of control; T/C (dose: 1.0 mg/kg/injection, schedule: Q01DX009 (ip), vehicle: saline): 245 % of control and 100 % of control; T/C (dose: 1.0 mg/kg/injection, schedule: Q01DX009 (ip), vehicle: water): 327 % of control and 338 % of control; T/C (dose: 1.0 mg/kg/injection, schedule: Q01DX009 (oral), vehicle: acid diluted with saline): 115 % of control; T/C (dose: 1.0 mg/kg/injection, schedule: Q01DX009 (oral), vehicle: saline): 240 % of control; T/C (dose: 1.0 mg/kg/injection, schedule: Q01DX009 (sc), vehicle: acid diluted with saline): 170 % of control; T/C (dose: 1.0 mg/kg/injection, schedule: Q01DX010 (ip), vehicle: saline): 120 % of control; T/C (dose: 1.0 mg/kg/injection, schedule: Q03HX008 (ip), vehicle: acid diluted with saline): 150 % of control; T/C (dose: 1.0 mg/kg/injection, schedule: Q03HX016 (ip), vehicle: acid diluted with saline): 100 % of control; T/C (dose: 2.0 mg/kg/injection, schedule: Q01DX001 (ip), vehicle: acid diluted with saline): 120 % of control; T/C (dose: 2.0 mg/kg/injection, schedule: Q01DX001 (iv), vehicle: acid diluted with saline): 110 % of control; T/C (dose: 2.0 mg/kg/injection, schedule: Q01DX001 (oral), vehicle: acid diluted with saline): 110 % of control; T/C (dose: 2.0 mg/kg/injection, schedule: Q01DX001 (sc), vehicle: acid diluted with saline): 110 % of control; T/C (dose: 2.0 mg/kg/injection, schedule: Q01DX006 (iv), vehicle: acid diluted with saline): 200 % of control; T/C (dose: 2.0 mg/kg/injection, schedule: Q01DX009 (ip), vehicle: acid diluted with saline): 240 % of control and 254 % of control; T/C (dose: 2.0 mg/kg/injection, schedule: Q01DX009 (ip), vehicle: water): 88 % of control; T/C (dose: 2.0 mg/kg/injection, schedule: Q01DX009 (sc), vehicle: acid diluted with saline): 235 % of control; T/C (dose: 2.0 mg/kg/injection, schedule: Q01DX009 (sc), vehicle: saline): 205 % of control; T/C (dose: 2.0 mg/kg/injection, schedule: Q04DX003 (ip), vehicle: acid diluted with saline): 155 % of control and 168 % of control and 170 % of control; T/C (dose: 2.0 mg/kg/injection, schedule: Q04DX003 (ip), vehicle: saline): 173 % of control; T/C (dose: 3.33 mg/kg/injection, schedule: Q04DX003 (ip), vehicle: acid diluted with saline): 112 % of control; T/C (dose: 4.0 mg/kg/injection, schedule: Q01DX001 (ip), vehicle: acid diluted with saline): 115 % of control; T/C (dose: 4.0 mg/kg/injection, schedule: Q01DX001 (iv), vehicle: acid diluted with saline): 110 % of control; T/C (dose: 4.0 mg/kg/injection, schedule: Q01DX001 (oral), vehicle: acid diluted with saline): 110 % of control; T/C (dose: 4.0 mg/kg/injection, schedule: Q01DX001 (sc), vehicle: acid diluted with saline): 120 % of control; T/C (dose: 4.0 mg/kg/injection, schedule: Q01DX006 (iv), vehicle: acid diluted with saline): 120 % of control; T/C (dose: 4.0 mg/kg/injection, schedule: Q01DX009 (ip), vehicle: acid diluted with saline): 190 % of control; T/C (dose: 4.0 mg/kg/injection, schedule: Q01DX009 (ip), vehicle: saline): 100 % of control; T/C (dose: 4.0 mg/kg/injection, schedule: Q01DX009 (sc), vehicle: saline): 115 % of control; T/C (dose: 4.0 mg/kg/injection, schedule: Q04DX003 (ip), vehicle: acid diluted with saline): 110 % of control; T/C (dose: 8.0 mg/kg/injection, schedule: Q01DX009 (ip), vehicle: saline): 104 % of control; T/C (dose: 62.5 micrograms/kg/injection, schedule: Q01DX009 (ip), vehicle: saline): 154 % of control; T/C (dose: 125.0 micrograms/kg/injection, schedule: Q01DX009 (ip), vehicle: saline): 154 % of control; T/C (dose: 125.0 micrograms/kg/injection, schedule: Q03HX024 (ip), vehicle: acid diluted with saline): 170 % of control; T/C (dose: 250.0 micrograms/kg/injection, schedule: Q01DX009 (ip), vehicle: saline): 163 % of control; T/C (dose: 250.0 micrograms/kg/injection, schedule: Q03HX024 (ip), vehicle: acid diluted with saline): 190 % of control; T/C (dose: 500.0 micrograms/kg/injection, schedule: Q01DX009 (ip), vehicle: saline): 190 % of control; T/C (dose: 500.0 micrograms/kg/injection, schedule: Q03HX024 (ip), vehicle: acid diluted with saline): 215 % of control; T/C (dose: 1000.0 micrograms/kg/injection, schedule: Q01DX009 (ip), vehicle: saline): 213 % of control
